Data published in PubChem BioAssay AID248 (DTP/NCI, 2004).
Values joined by “and” are separate entries in the source; they are usually repeats but may differ in a detail not shown here. Identical values can stand only once. Toxic doses and inconclusive results are not listed. No stated cut-off is given here; in the data, active means T/C of 150% or more; inactive means T/C below 125%.

System: L1210 leukemia ip in BDF1 mice, survival T/C
Test: NCI In Vivo Anticancer Drug Screen. Data for tumor model L1210 Leukemia (intraperitoneal) in B6D2F1 (BDF1) mice
Settings: endpoint: mean survival time, higher = longer survival
Procedure, shortened: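 In this screen, tumor-bearing mice given compound are compared to those given vehicle, and their survival values are reported as a treated-to-control quotient.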

[1] = dose: 50.0 mg/kg/injection, schedule: Q01DX009 (ip), vehicle: saline with Tween-80
[2] = dose: 100.0 mg/kg/injection, schedule: Q01DX009 (ip), vehicle: saline with Tween-80
[3] = dose: 200.0 mg/kg/injection, schedule: Q01DX009 (ip), vehicle: saline with Tween-80
[4] = dose: 100.0 mg/kg/injection, schedule: Q01DX009 (ip), vehicle: Klucel (hydroxypropylcellulose) (HPC)
[5] = dose: 100.0 mg/kg/injection, schedule: Q04DX003 (ip), vehicle: saline with Tween-80
[6] = dose: 200.0 mg/kg/injection, schedule: Q01DX009 (ip), vehicle: Klucel (hydroxypropylcellulose) (HPC)
[7] = dose: 200.0 mg/kg/injection, schedule: Q04DX003 (ip), vehicle: saline with Tween-80
[8] = dose: 400.0 mg/kg/injection, schedule: Q01DX009 (ip), vehicle: Klucel (hydroxypropylcellulose) (HPC)
[9] = dose: 400.0 mg/kg/injection, schedule: Q01DX009 (ip), vehicle: saline with Tween-80
[10] = dose: 400.0 mg/kg/injection, schedule: Q04DX003 (ip), vehicle: saline with Tween-80
[11] = dose: 25.0 mg/kg/injection, schedule: Q01DX009 (ip), vehicle: Klucel (hydroxypropylcellulose) (HPC)
[12] = dose: 100.0 mg/kg/injection, schedule: Q04DX002 (ip), vehicle: Klucel (hydroxypropylcellulose) (HPC)
[13] = dose: 100.0 mg/kg/injection, schedule: Q04DX003 (ip), vehicle: saline
[14] = dose: 200.0 mg/kg/injection, schedule: Q04DX003 (ip), vehicle: saline
[15] = dose: 100.0 mg/kg/injection, schedule: Q04DX003 (ip), vehicle: Klucel (hydroxypropylcellulose) (HPC)
[16] = dose: 200.0 mg/kg/injection, schedule: Q04DX003 (ip), vehicle: Klucel (hydroxypropylcellulose) (HPC)
[17] = dose: 400.0 mg/kg/injection, schedule: Q04DX003 (ip), vehicle: Klucel (hydroxypropylcellulose) (HPC)
[18] = dose: 50.0 mg/kg/injection, schedule: Q01DX009 (ip), vehicle: Klucel (hydroxypropylcellulose) (HPC)
[19] = dose: 100.0 mg/kg/injection, schedule: Q01DX001 (ip), vehicle: carboxymethylcellulose (CMC)
[20] = dose: 200.0 mg/kg/injection, schedule: Q01DX001 (ip), vehicle: carboxymethylcellulose (CMC)

Measured: T/C

N#CC(OC(OC(C#N)c1ccccc1)c1ccccc1)c1ccccc1 (centres undefined)
inactive: [1] 93 % of control | [2] 93 % of control | [3] 90 % of control

CC1(c2ccco2)NC(=O)NC1=O (centres undefined)
inactive: [4] 94 % of control | [2] 91 % of control | [5] 111 % of control and 101 % of control | [6] 100 % of control | [3] 95 % of control | [7] 104 % of control and 114 % of control | [8] 105 % of control | [9] 98 % of control | [10] 111 % of control and 101 % of control

CCCCCCCC[N+](CC)(CC)CCOC(=O)C(C1CCCC1)C1CCCC1
inactive: dose: 0.25 mg/kg/injection, schedule: Q01DX015 (ip), vehicle: saline 91 % of control | dose: 0.5 mg/kg/injection, schedule: Q01DX015 (ip), vehicle: saline 91 % of control | dose: 1.0 mg/kg/injection, schedule: Q01DX015 (ip), vehicle: saline 88 % of control | dose: 1.25 mg/kg/injection, schedule: Q01DX009 (ip), vehicle: saline 95 % of control | dose: 2.0 mg/kg/injection, schedule: Q01DX015 (ip), vehicle: saline 86 % of control | dose: 2.5 mg/kg/injection, schedule: Q01DX009 (ip), vehicle: saline 102 % of control | dose: 2.5 mg/kg/injection, schedule: Q04DX003 (ip), vehicle: saline 94 % of control | dose: 5.0 mg/kg/injection, schedule: Q04DX003 (ip), vehicle: saline 94 % of control

Nc1cc[n+](-c2ccc([N+](=O)[O-])cc2[N+](=O)[O-])cc1
inactive: dose: 12.5 mg/kg/injection, schedule: Q01DX009 (ip), vehicle: Klucel (hydroxypropylcellulose) (HPC) 98 % of control | [11] 100 % of control

CCOC(=S)SCC(=O)c1ccc(Br)cc1
inactive: [12] 101 % of control | dose: 200.0 mg/kg/injection, schedule: Q04DX002 (ip), vehicle: Klucel (hydroxypropylcellulose) (HPC) 92 % of control | dose: 400.0 mg/kg/injection, schedule: Q04DX002 (ip), vehicle: Klucel (hydroxypropylcellulose) (HPC) 86 % of control

O=C(O)c1cc(-c2cccc(C(F)(F)F)c2)nc2c(C(F)(F)F)cccc12
inactive: [1] 96 % of control | [2] 96 % of control | [5] 101 % of control | [7] 105 % of control

CCCCNC(C)(C)C(SSSC(c1ccco1)C(C)(C)NCCCC)c1ccco1 (centres undefined)
inactive: [1] 91 % of control | [2] 96 % of control | [13] 98 % of control | [14] 100 % of control

O=c1c(N=Nc2ccc(Cl)cc2)c(O)n(-c2ccc(Br)cc2)c(=S)n1-c1ccccc1
inactive: dose: 50.0 mg/kg/injection, schedule: Q01DX001 (ip), vehicle: Klucel (hydroxypropylcellulose) (HPC) 97 % of control | dose: 100.0 mg/kg/injection, schedule: Q01DX001 (ip), vehicle: Klucel (hydroxypropylcellulose) (HPC) 101 % of control | dose: 200.0 mg/kg/injection, schedule: Q01DX001 (ip), vehicle: Klucel (hydroxypropylcellulose) (HPC) 97 % of control

Cc1ccc(NC(=O)Nc2cccc(Cl)c2)cc1C
inactive: [4] 96 % of control | [15] 90 % of control | [6] 98 % of control | [16] 92 % of control | [8] 95 % of control | [17] 92 % of control

Cc1cc(=O)[nH]c(C(F)(F)F)n1
inactive: dose: 44.0 mg/kg/injection, schedule: Q01DX Z (ip), vehicle: methylcellulose (MC) 93 % of control | dose: 66.0 mg/kg/injection, schedule: Q01DX Z (ip), vehicle: methylcellulose (MC) 107 % of control | dose: 100.0 mg/kg/injection, schedule: Q01DX Z (ip), vehicle: methylcellulose (MC) 102 % of control

CC(/C=C/c1ccccc1Cl)=N\NC(=O)c1ccncc1
inactive: dose: 100.0 mg/kg/injection, schedule: Q01DX001 (ip), vehicle: saline with Tween-80 95 % of control | dose: 200.0 mg/kg/injection, schedule: Q01DX001 (ip), vehicle: saline with Tween-80 95 % of control | dose: 400.0 mg/kg/injection, schedule: Q01DX001 (ip), vehicle: saline with Tween-80 90 % of control

COc1ccc(OC)c(NC(=O)c2cccc(N(CCCl)CCCl)c2)c1
inactive: dose: 100.0 mg/kg/injection, schedule: Q01DX001 (ip), vehicle: other 98 % of control | dose: 200.0 mg/kg/injection, schedule: Q01DX001 (ip), vehicle: other 95 % of control | dose: 400.0 mg/kg/injection, schedule: Q01DX001 (ip), vehicle: other 104 % of control

COc1nc(Cl)nc(Cl)c1Cl (tested in a mixture with another compound)
inactive: dose: 50.0 mg/kg/injection, schedule: Q01DX009 (ip), vehicle: other 87 % of control | dose: 100.0 mg/kg/injection, schedule: Q01DX009 (ip), vehicle: other 102 % of control

CCCCCCCCCCCCCCCCOc1ccc(S(=O)(=O)Nc2cc(C(=O)OC)cc(C(=O)OC)c2)cc1[N+](=O)[O-]
inactive: [4] 98 % of control | [15] 93 % of control | [6] 97 % of control | [16] 95 % of control | [8] 92 % of control | [17] 91 % of control

CCS(=O)(=O)OCCCl
inactive: [11] 94 % of control | dose: 25.0 mg/kg/injection, schedule: Q04DX002 (ip), vehicle: Klucel (hydroxypropylcellulose) (HPC) 97 % of control | [18] 93 % of control | dose: 50.0 mg/kg/injection, schedule: Q04DX002 (ip), vehicle: Klucel (hydroxypropylcellulose) (HPC) 94 % of control | [19] 112 % of control | [12] 102 % of control and 90 % of control | [20] 116 % of control

O=I(=O)c1ccccc1
inactive: dose: 25.0 mg/kg/injection, schedule: Q01DX009 (ip), vehicle: saline with Tween-80 101 % of control | [1] 103 % of control | [2] 97 % of control | [5] 96 % of control

CCCCSCc1nc2nc(Cl)c(Cl)nc2[nH]1
inactive: [1] 96 % of control | [2] 98 % of control and 92 % of control | [5] 100 % of control | [3] 112 % of control | [7] 98 % of control | [9] 95 % of control and 96 % of control | [10] 98 % of control

CCOC(=O)COC(CN)C(Cl)(Cl)Cl (centres undefined)
inactive: [1] 93 % of control | [2] 90 % of control | [3] 90 % of control

CCN(C(=O)Nc1ccc([N+](=O)[O-])cc1OC)c1cccc(C)c1
inactive: [4] 94 % of control | [6] 97 % of control | [8] 100 % of control

O=[N+]([O-])c1ccc(OC(=S)Oc2ccc([N+](=O)[O-])cc2)cc1
inactive: dose: 50.0 mg/kg/injection, schedule: Q01DX001 (ip), vehicle: carboxymethylcellulose (CMC) 103 % of control | [19] 105 % of control | [20] 97 % of control | dose: 400.0 mg/kg/injection, schedule: Q01DX001 (ip), vehicle: carboxymethylcellulose (CMC) 100 % of control

COC(=O)C1ON(C(=O)c2ccccc2)C(C)C2OC12 (centres undefined)
inactive: [15] 103 % of control | [16] 100 % of control | [17] 96 % of control

CCC(C)(C(=O)O)C(=O)O
inactive: dose: 100.0 mg/kg/injection, schedule: Q01DX001 (ip), vehicle: saline 103 % of control

CSCCC(NC(=O)COc1ccc(Cl)cc1Cl)C(=O)O (centres undefined)
inactive: [4] 100 % of control | [6] 101 % of control | [8] 108 % of control

NCCCCCCN (tested in a mixture with another compound)
inactive: dose: 3.0 mg/kg/injection, schedule: Q01DX009 (ip), vehicle: acid diluted with saline 101 % of control | dose: 3.0 mg/kg/injection, schedule: Q04DX003 (ip), vehicle: acid diluted with saline 104 % of control | dose: 6.0 mg/kg/injection, schedule: Q01DX009 (ip), vehicle: acid diluted with saline 108 % of control | dose: 6.0 mg/kg/injection, schedule: Q04DX003 (ip), vehicle: acid diluted with saline 89 % of control | dose: 12.0 mg/kg/injection, schedule: Q04DX003 (ip), vehicle: acid diluted with saline 106 % of control

CCOC(=O)C1=C(C)NC(=O)NC1c1ccc(N(CCCl)CCCl)cc1Cl (centres undefined)
inactive: [11] 102 % of control | [18] 98 % of control | [4] 111 % of control

CC(CO)NC(=O)c1ccc(N)cc1 (centres undefined)
inactive: [13] 107 % of control | [14] 100 % of control | dose: 400.0 mg/kg/injection, schedule: Q04DX003 (ip), vehicle: saline 102 % of control

CCCCCCC[n+]1ccc(C#N)cc1
inactive: dose: 75.0 mg/kg/injection, schedule: Q01DX001 (ip), vehicle: saline 103 % of control
